Experiments:
[1] = Hydrolysis and aspirin release in buffered human plasma solution (HPLC); conditions: for aspirin production / aspirin produced: 50% human plasma
[2] = tested on: collagen-induced human platelet aggregation; test: Collagen-induced human platelet aggregation in vitro; assay type: cell-based
Description: (§1) Blood was collected from healthy volunteers who had not taken any drugs known to affect platelet function for at least 14 days prior to the study. Platelet rich plasma (PRP) and washed platelet suspensions (2.5×10^8 platelets/ml) were prepared from blood as previously described.
(§2) Platelet aggregation was measured by light aggregometry as previously described. Briefly, PRP and washed platelet samples (2.5×10^8/ml) were placed in a whole blood ionized calcium lumi-aggregometer (Chronolog Corp., Havertown, Pa., U.S.A), and (BIO/DATA CORPORATION) and incubated for 10 min at 37° C., with stirring at 900 r.p.m., prior to the addition of aggregating agents. Aggregation was initiated by the addition of agonists, and monitored by Aggro-Link software for at least 6 min. For experiments using inhibitors, aggregation was initiated after 10 min preincubation with these compounds
(§3) Collagen at different concentrations (3-5 ug/ml) was also used to induce platelet aggregation. The submaximal concentrations of agonists, i.e. the concentrations that gave approximately 95% of the maximal aggregation were used to study the effects of inhibitors of aggregation. Results were expressed in percent changes in maximal light transmission, with 100% representing light transmission of platelet medium alone.

[3] = tested on: ADP-induced platelet aggregation; test: ADP-induced platelet aggregation in PRP; assay type: cell-based, human
Description: as §1, §2, §3

[4] = cited from earlier work
[5] = tested on: human platelet aggregation to arachidonic acid; test: Human platelet aggregation to arachidonic acid in platelet rich plasma; assay type: cell-based; conditions: Homo sapiens, platelet rich plasma
Description: as §1, §2

[6] = tested on: GPIIb/IIIa; test: Flow cytometry of activated GPIIb/IIIa (PAC-1) on platelets; assay type: cell-based, human
Description: In order to analyze receptor expression on the surface of individual platelets and to minimize platelet activation caused by sample preparation procedures, no stirring or vortexing steps were used. The abundance of activated GPIIb/IIIa and P-selectin on the surface of platelets in the presence and absence of inhibitors was measured by flow cytometry. Platelet samples were first activated with agonists either collagen or ADP. When platelet aggregation reached 50% maximal light transmission the reaction was terminated by 10-fold dilution with physiologic saline. Resting platelets were used as control. In most of the experiments, platelets were preincubated with inhibitors for 10 min prior to the addition of agonists. Platelet samples were then incubated in the dark without stirring for 5 min at room temperature in the presence of saturating concentrations (10 μg/ml) of P-selectin (CD62P-APC). The activated GPIIb/IIIa platelet receptors were measured using PAC-1 monoclonal antibody at the same concentration as above. PAC-1 specifically recognizes an epitope on the high-affinity GPIIb/IIIa complex of activated platelets at or near the […]. Following incubation, samples were diluted in FACS Flow fluid and analyzed within 5 min using a BD FACSArray (BD Biosciences, Oxford, UK). Flow cytometry was performed on single stained platelet samples as described before^3. The instrument was set up to measure the size (forward scatter), granularity (side scatter) and cell fluorescence. A two-dimensional analysis gate of forward and side scatter was drawn in order to include single platelets and exclude platelet aggregates and microparticles. Antibody binding was measured by analyzing individual platelets for fluorescence. The mean fluorescence intensity was determined after correction for cell autofluorescence. For each sample, the fluorescence was analyzed using a logarithmic scale. Fluorescence histograms were obtained for 10,000 individual events. Data were analyzed using Cytometer RXP software and expressed as a percentage of control fluorescence in arbitrary units.

[7] = tested on: platelet aggregation in human whole blood; test: Whole blood aggregation studies (impedance method); assay type: cell-based; conditions: Homo sapiens, Platelet; arachidonic acid; impedance method; read-out: IC50, platelet aggregation towards arachidonic acid in human whole blood
Description: A 500 μl aliquot of blood was mixed with 500 μl of physiological saline and allowed to incubate at 37° C. for 10 mins in the incubation well of a Chrono-Log Whole Blood Aggregometer model 591/592. The sample was then transferred to the assay well, baseline was established and appropriate volume of reagent as above was added. Aggregation was monitored over 6 mins with impedance output recorded on a chart recorder. When testing inhibitors whole blood was pre-incubated with appropriate concentrations of inhibitor in DMSO at 37° C. for a specified length of time before adding the stimulant (10 mins with stirring). Three different aggregating agents, AA (0.5 mM), ADP (10 μM) and Collagen (5 μg/ml) were used. […] DMSO in high concentrations (above 0.25%) can induce a concentration dependent change in platelet cytoplasmic ionised calcium. Before each experiment a control was run using PRP to obtain normal aggregating responses. A sample was also incubated for 10 min at 37° C. with 10 μl DMSO to ensure it was having no inhibitory effect on the aggregation response.

[8] = in vivo; cited from earlier work
[9] = biological target: T1, purified human serum BuChE (Homo sapiens, UniProt P06276); test: Hydrolysis by purified human serum butyrylcholinesterase; assay type: in vitro ADME; conditions: Purified human serum (0.15 mg/ml); conc drug 0.12 mM
T1 construct: Purified human serum butyrylcholinesterase (EC 3.1.1.8); purchased Sigma-Aldrich; host or cells: human serum
T1 sequence (P06276 29-602): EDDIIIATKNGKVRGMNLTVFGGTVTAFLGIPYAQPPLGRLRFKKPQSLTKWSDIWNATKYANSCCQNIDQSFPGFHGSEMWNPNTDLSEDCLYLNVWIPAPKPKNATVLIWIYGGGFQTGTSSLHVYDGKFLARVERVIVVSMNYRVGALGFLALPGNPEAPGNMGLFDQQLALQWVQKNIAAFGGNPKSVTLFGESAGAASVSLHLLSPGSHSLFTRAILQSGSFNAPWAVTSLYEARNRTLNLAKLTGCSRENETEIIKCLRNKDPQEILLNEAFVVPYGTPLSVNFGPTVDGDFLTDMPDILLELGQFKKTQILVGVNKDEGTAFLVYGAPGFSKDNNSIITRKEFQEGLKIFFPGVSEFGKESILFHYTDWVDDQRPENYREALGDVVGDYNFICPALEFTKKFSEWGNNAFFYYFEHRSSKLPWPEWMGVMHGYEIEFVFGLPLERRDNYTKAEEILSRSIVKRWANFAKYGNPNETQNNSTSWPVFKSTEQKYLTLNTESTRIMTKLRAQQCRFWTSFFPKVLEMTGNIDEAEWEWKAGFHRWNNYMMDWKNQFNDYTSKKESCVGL
Description: Pooled plasma/serum solutions (4 ml) were prepared to the correct strength by dilution of plasma with phosphate buffer pH 7.4 (e.g. for a 10% solution 0.4 ml of plasma/serum was added to 3.6 ml of phosphate buffer pH 7.4). Following equilibration of the plasma/serum sample at 37±0.5° C. 100 μl of a stock solution of test compound in acetonitrile (1×10^−4 M) was added and 250 μl aliquots were removed at specified time intervals. Samples were transferred to 1.5 ml Eppendorf tubes containing 500 μl of a 2% w/v solution of nSO4.7H2O (water:acetonitrile, 1:1). Tubes were vortexed for 2 minutes, then centrifuged at 10,000 rpm for 3 minutes at room temperature. Supernatant was aspirated off and analysed by HPLC. The concentration of test compound and metabolites were determined with reference to calibration curves run on that day in the same concentration range and under the same experimental conditions. In order to mimic conditions during the first passage of the drugs after intestinal absorption selected compounds were incubated in phosphate buffer at 37° C. in the presence of microsomes from human liver (HLM) and intestinal epithelium (HIM). The metabolic fate of the esters under these conditions was also determined by RPHPLC by measuring the concentration of drug and metabolites in the medium as a function of time. The identity of participating enzymes was confirmed by using purified enzyme in the case of plasma (BuChE) and by repeating the hydrolysis experiments in the presence of esterase specific inhibitors—isoOMPA for BuChE and BNPP for carboxylesterase. The BuChE activity of plasma and microsomal samples was determined using the Ellman assay (Ellman et al., 1964).

[10] = human, 2.4 µM, pH 7.4
[11] = biological target: horse plasma butyrylcholinesterase (Equus caballus, UniProt P81908); conditions: cited from earlier work
horse plasma butyrylcholinesterase, sequence (P81908 whole entry): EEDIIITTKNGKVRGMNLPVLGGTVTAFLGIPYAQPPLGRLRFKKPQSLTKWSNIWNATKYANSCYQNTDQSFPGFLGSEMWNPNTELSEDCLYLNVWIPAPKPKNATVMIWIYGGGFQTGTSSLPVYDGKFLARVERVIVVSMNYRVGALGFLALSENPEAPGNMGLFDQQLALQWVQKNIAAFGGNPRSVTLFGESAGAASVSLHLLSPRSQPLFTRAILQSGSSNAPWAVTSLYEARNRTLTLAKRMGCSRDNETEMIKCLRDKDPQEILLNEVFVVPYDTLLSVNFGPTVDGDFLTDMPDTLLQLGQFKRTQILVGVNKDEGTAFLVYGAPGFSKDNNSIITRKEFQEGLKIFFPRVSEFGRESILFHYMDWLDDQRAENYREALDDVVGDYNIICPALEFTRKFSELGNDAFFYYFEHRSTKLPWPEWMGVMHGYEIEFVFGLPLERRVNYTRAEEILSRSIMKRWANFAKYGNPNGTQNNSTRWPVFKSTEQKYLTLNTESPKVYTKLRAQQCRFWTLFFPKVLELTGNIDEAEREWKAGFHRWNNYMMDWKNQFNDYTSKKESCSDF

[12] = phosphate buffered human plasma solutions (Gilmer et al., 2002)

With “Isosorbide-2-aspirinate-5-[2-methylbenzoate] [Compound 1]” the “aspirin release (hydrolysis along the aspirin pathway) in human plasma” value ([1]; human plasma) was “around 60%”.

In the case of “Isosorbide-2-aspirinate-5-(2-nitrooxy-methyl)benzoate [Compound 31]”, the aspirin production [1] is reported as 10.3 µM and the aspirin produced ([1]; drug 1×10^−4 M) is reported as 10.3 µM.

For `CC(=O)Oc1ccccc1C(=O)O[C@@H]1CO[C@H]2[C@@H]1OC[C@@H]2O` [Compound 5-aspirinate, isosorbide-5-aspirinate, reference compound], the “acts as aspirin prodrug in human plasma” value ([1]; human plasma) was “None of these acted as aspirin prodrugs”.

With `CC(=O)Oc1ccccc1C(=O)O[C@H]1CO[C@H]2[C@@H]1OC[C@H]2O` [Compound 17, Isosorbide-2-aspirinate-5-OH, reference compound] the “molar % aspirin released in 10% human plasma” value ([1]; 10% human plasma, pH 7.4, 37° C., peak aspirin as percentage of initial ester concentration in moles) was 2.95%, the “Half-life in 10% human plasma” value ([1]; 10% human plasma, phosphate buffer pH 7.4, 37° C.) was 4.08 min and the “acts as aspirin prodrug in human plasma” value ([1]; human plasma) was “is not an aspirin prodrug”. For the same compound, the “acts as aspirin prodrug in human plasma” value ([1]; human plasma, listed as 2-aspirinate) was “None of these acted as aspirin prodrugs”.

In the case of “Isosorbide-2-aspirinate-5-(p-cyanobenzoate) [Compound 20]”, the “potency relative to aspirin, inhibition of collagen-induced human platelet aggregation” value [2] is reported as “more potent than aspirin” and the “potency relative to aspirin, inhibition of ADP-induced platelet aggregation” value [3] is reported as “more potent inhibitor”.

In the case of `CC(=O)Oc1ccccc1C(=O)O` [aspirin], the “half-life in dilute plasma” value ([4]; dilute plasma) is listed as “around one”, the IC50 [5] is listed as 5 µM and the “constitutive platelet glyco-protein expression” value ([6]; concentrations at which aspirin has no effect) is listed as “has no effect”. For the same compound, the “inhibition of platelets activation” value ([6]; same concentration like ISAS (2) or nitrate compounds 31-32) was “failed to inhibit platelets activation”, the IC50 [7] was 25 µM and the “half-life in the body” value [8] was 20 min.

With “Isosorbide-2-aspirinate-5-(4-nitrooxy-methyl) benzoate [Compound 33]” the aspirin production [1] was 2 µM and the aspirin produced ([1]; drug 1×10^−4 M) was 2 µM.

In the case of “Isosorbide-2-aspirinate-5-(3-nitrooxy-methyl)benzoate [Compound 32]”, the “Aspirin” value ([1]; 50% HP, conc drug 0.25 mM) is reported as 26 µM, the “Salicylic acid” value ([1]; 50% HP, conc drug 0.25 mM) is reported as 18 µM and the aspirin production [1] is reported as 26 µM. For the same compound, the aspirin produced ([1]; drug 2.5×10^−4 M) was 26 µM, the “Salicylic acid” value ([1]; 80% HP, conc drug 0.1 mM) was 9 µM and the “Aspirin” value [9] was 15 µM. For the same compound, the “Drug disappearace” value [9] was 10 min and the “Salicylic acid” value [9] was 6 µM.

For `CC(=O)Oc1ccccc1C(=O)O[C@H]1CO[C@H]2[C@@H]1OC[C@H]2OC(=O)c1ccccc1OC(C)=O` [Compound 16, Isosorbide-di-aspirinate], the “aspirin produced in phosphate buffered human plasma solutions” value [4, 12] is listed as “approximately 60%”, the “hydrolysed along the unproductive salicylate pathway” value [4, 12] is listed as 40% and the “hydrolysis along unproductive salicylate pathway” value [10] is listed as 40%. The aspirin generated [11] was 11%.

From patent US8486974B2 (priority 2007, dated 2013)
